Experimental data taken from US11629129B2, “Microbiocidal picolinamide derivatives” (SYNGENTA PARTICIPATIONS AG, priority 2018, dated 2023).

Key:
[1] = system: Botryotinia fuckeliana (Botrvtis cinerea); assay: Botryotinia fuckeliana (Botrvtis cinerea)/Liquid Culture (Gray Mould); assay type: cell-based; settings: Botrytis cinerea; 200 ppm in the formulation; liquid culture, growth inhibition photometrically 3-4 days after application; compared to untreated control; read-out: disease control
Description: (§1) Botryotinia fuckeliana (Botrvtis cinerea)/Liquid Culture (Gray Mould) Conidia of the fungus from cryogenic storage are directly mixed into nutrient broth (Vogels broth). After placing a (DMSO) solution of test compound into a microtiter plate (96-well format), the nutrient broth containing the fungal spores is added. The test plates are incubated at 24° C. and the inhibition of growth is determined photometrically 3-4 days after application.

[2] = system: Glomerella lagenarium (Colletotrichum lagenarium); assay: Glomerella lagenarium (Colletotrichum lagenarium)/Liquid Culture (Anthracnose); assay type: cell-based; settings: Colletotrichum orbiculare; 200 ppm in the formulation; liquid culture, growth inhibition photometrically 3 to 4 days after application; compared to untreated control; read-out: disease control
Description: as §1, with “Glomerella lagenarium (Colletotrichum lagenarium)/Liquid” for “Botryotinia fuckeliana (Botrvtis cinerea)/Liquid”, “(Anthracnose)” for “(Gray Mould)”, “(PDB potato dextrose” for “(Vogels”, “measured” for “determined”, “3 to 4” for “3-4”

[3] = system: Monographella nivalis (Microdochium nivale); assay: Monographella nivalis (Microdochium nivale)/Liquid Culture (Foot Rot Cereals); assay type: cell-based; settings: 200 ppm in the formulation, liquid culture, growth inhibition photometrically 4-5 days after application, compared to untreated control, read-out: disease control
Description: as §1, with “Monographella nivalis (Microdochium nivale)/Liquid” for “Botryotinia fuckeliana (Botrvtis cinerea)/Liquid”, “(Foot Rot Cereals)” for “(Gray Mould)”, “(PDB potato dextrose” for “(Vogels”, “4-5” for “3-4”

[4] = system: Mycosphaerella arachidis (Cercospora arachidicola); assay: Mycosphaerella arachidis (Cercospora arachidicola)/Liquid Culture (Early Leaf Spot); assay type: cell-based; settings: 200 ppm in the formulation, liquid culture, growth inhibition photometrically 4-5 days after application, compared to untreated control, read-out: disease control
Description: as §1, with “Mycosphaerella arachidis (Cercospora arachidicola)/Liquid” for “Botryotinia fuckeliana (Botrvtis cinerea)/Liquid”, “(Early Leaf Spot)” for “(Gray Mould)”, “(PDB potato dextrose” for “(Vogels”, “4-5” for “3-4”

[5] = system: Mycosphaerella graminicola (Septoria tritici); assay: Mycosphaerella graminicola (Septoria tritici)/Liquid Culture (Septoria Blotch); assay type: cell-based; settings: Zymoseptoria tritici; 200 ppm in the formulation; liquid culture, growth inhibition photometrically 4 to 5 days after application; compared to untreated control; read-out: disease control
Description: as §1, with “Mycosphaerella graminicola (Septoria tritici)/Liquid” for “Botryotinia fuckeliana (Botrvtis cinerea)/Liquid”, “(Septoria Blotch)” for “(Gray Mould)”, “(PDB potato dextrose” for “(Vogels”, “4 to 5” for “3-4”

[6] = system: Puccinia recondita f. sp. tritici; assay: Puccinia recondita f. sp. tritici/Wheat/Leaf Disc Preventative (Brown Rust); assay type: in vivo; settings: foliar, 200 ppm in the formulation, wheat leaf segments cv. Kanzler, inoculated 1 day after application, assessed 7-9 days after application, compared to untreated, read-out: disease control
Description: Puccinia recondita f. sp. tritici/Wheat/Leaf Disc Preventative (Brown Rust) Wheat leaf segments cv. Kanzler are placed on agar in multiwell plates (24-well format) and sprayed with the formulated test compound diluted in water. The leaf disks are inoculated with a spore suspension of the fungus 1 day after application. The inoculated leaf segments are incubated at 19° C. and 75% rh under a light regime of 12 h light/12 h darkness in a climate cabinet and the activity of a compound is assessed as percent disease control compared to untreated when an appropriate level of disease damage appears in untreated check leaf segments (7-9 days after application).

COc1ccnc(C(=O)N[C@@H](C)C(=O)O[C@@H](C)c2cccc(-c3ccccc3)c2)c1O [I.a.001, [(1S)-1-(3-phenylphenyl)ethyl] (2S)-2-[(3-hydroxy-4-methoxy-pyridine-2-carbonyl)amino] propanoate]
≥ 80%: inhibition of growth at 200 ppm [1] | inhibition of growth at 200 ppm [2] | inhibition of growth at 200 ppm [3] | inhibition of growth at 200 ppm [4] | inhibition of growth at 200 ppm [5]

COc1ccnc(C(=O)N[C@@H](C)C(=O)O[C@@H](C)c2ccc(-c3ccc(C(F)(F)F)nc3)cc2)c1O [I.af.001, [(1S)-1-[4-[6-(trifluoromethyl)-3-pyridyl]phenyl]ethyl] (2S)-2-[(3-hydroxy-4-methoxy-pyridine-2-carbonyl)amino] propanoate]
≥ 80%: inhibition of growth at 200 ppm [2] | inhibition of growth at 200 ppm [3] | inhibition of growth at 200 ppm [4] | inhibition of growth at 200 ppm [5] | pest or weed control at 200 ppm [6]

COc1ccnc(C(=O)N[C@@H](C)C(=O)O[C@@H](C)c2ccc(-c3cncc(Cl)c3)cc2)c1O [I.ah.001, [(1S)-1-[4-(5-chloro-3-pyridyl)phenyl]ethyl] (2S)-2-[(3-hydroxy-4-methoxy-pyridine-2-carbonyl)amino] propanoate]
≥ 80%: inhibition of growth at 200 ppm [2] | inhibition of growth at 200 ppm [3] | inhibition of growth at 200 ppm [4] | inhibition of growth at 200 ppm [5] | pest or weed control at 200 ppm [6]

COc1ccnc(C(=O)N[C@@H](C)C(=O)O[C@@H](C)c2cccc(Oc3cccc(Cl)c3)c2)c1O [I.ar.001, [(1S)-1-[3-(3-chlorophenoxy)phenyl]ethyl] (2S)-2-[(3-hydroxy-4-methoxy-pyridine-2-carbonyl)amino] propanoate]
≥ 80%: inhibition of growth at 200 ppm [2] | inhibition of growth at 200 ppm [4] | inhibition of growth at 200 ppm [5] | pest or weed control at 200 ppm [6]

COc1ccnc(C(=O)N[C@@H](C)C(=O)O[C@@H](C)c2cccc(Oc3ccc(Cl)cc3)c2)c1O [I.as.001, [(1S)-1-[3-(4-chlorophenoxy)phenyl]ethyl] (2S)-2-[(3-hydroxy-4-methoxy-pyridine-2-carbonyl)amino] propanoate]
≥ 80%: inhibition of growth at 200 ppm [1] | inhibition of growth at 200 ppm [2] | inhibition of growth at 200 ppm [4] | inhibition of growth at 200 ppm [5] | pest or weed control at 200 ppm [6]

COc1ccnc(C(=O)N[C@@H](C)C(=O)O[C@@H](C)c2ccc(Oc3ccccc3)cc2)c1O [I.at.001, [(1S)-1-(4-phenoxyphenyl)ethyl] (2S)-2-[(3-hydroxy-4-methoxy-pyridine-2-carbonyl)amino] propanoate]
≥ 80%: inhibition of growth at 200 ppm [2] | inhibition of growth at 200 ppm [3] | inhibition of growth at 200 ppm [4] | inhibition of growth at 200 ppm [5] | pest or weed control at 200 ppm [6]

COc1ccnc(C(=O)N[C@@H](C)C(=O)O[C@@H](C)c2ccc(Oc3cccc(Cl)c3)cc2)c1O [I.au.001, [(1S)-1-[4-(3-chlorophenoxy)phenyl]ethyl] (2S)-2-[(3-hydroxy-4-methoxy-pyridine-2-carbonyl)amino] propanoate]
≥ 80%: inhibition of growth at 200 ppm [2] | inhibition of growth at 200 ppm [3] | inhibition of growth at 200 ppm [4] | inhibition of growth at 200 ppm [5] | pest or weed control at 200 ppm [6]

COc1ccnc(C(=O)N[C@@H](C)C(=O)O[C@@H](C)c2ccc(Oc3ccc(Cl)cc3)cc2)c1O [I.av.001, [(1S)-1-[4-(4-chlorophenoxy)phenyl]ethyl] (2S)-2-[(3-hydroxy-4-methoxy-pyridine-2-carbonyl)amino] propanoate]
≥ 80%: inhibition of growth at 200 ppm [2] | inhibition of growth at 200 ppm [3] | inhibition of growth at 200 ppm [4] | inhibition of growth at 200 ppm [5] | pest or weed control at 200 ppm [6]

COc1ccnc(C(=O)N[C@@H](C)C(=O)O[C@@H](C)c2cccc(-c3ccccc3Cl)c2)c1O [I.b.001, [(1S)-1-[3-(2-chlorophenyl)phenyl]ethyl] (2S)-2-[(3-hydroxy-4-methoxy-pyridine-2-carbonyl)amino] propanoate]
≥ 80%: inhibition of growth at 200 ppm [1] | inhibition of growth at 200 ppm [3] | inhibition of growth at 200 ppm [4] | inhibition of growth at 200 ppm [5] | pest or weed control at 200 ppm [6]

COc1ccnc(C(=O)N[C@@H](C)C(=O)O[C@@H](C)c2ccc(-c3cscc3C)cc2)c1O [I.bb.001, [(1S)-1-[4-(4-methyl-3-thienyl)phneyl]ethyl] (2S)-2-[(3-hydroxy-4-methoxy-pyridine-2-carbonyl)amino] propanoate]
≥ 80%: inhibition of growth at 200 ppm [2] | inhibition of growth at 200 ppm [3] | inhibition of growth at 200 ppm [4] | inhibition of growth at 200 ppm [5] | pest or weed control at 200 ppm [6]

COc1ccnc(C(=O)N[C@@H](C)C(=O)O[C@@H](C)c2ccc(-c3ccccc3)cc2)c1O [I.d.001, [(1S)-1-(4-phenylphenyl)ethyl] (2S)-2-[(3-hydroxy-4-methoxy-pyridine-2-carbonyl)amino] propanoate]
≥ 80%: inhibition of growth at 200 ppm [1] | inhibition of growth at 200 ppm [2] | inhibition of growth at 200 ppm [3] | inhibition of growth at 200 ppm [4] | inhibition of growth at 200 ppm [5] | pest or weed control at 200 ppm [6]

COc1ccnc(C(=O)N[C@@H](C)C(=O)O[C@@H](C)c2ccc(-c3ccccc3)c(F)c2)c1O [I.e.001, [(1S)-1-(3-fluoro-4-phenyl-phenyl)ethyl] (2S)-2-[(3-hydroxy-4-methoxy-pyridine-2-carbonyl)amino] propanoate]
≥ 80%: inhibition of growth at 200 ppm [1] | inhibition of growth at 200 ppm [2] | inhibition of growth at 200 ppm [3] | inhibition of growth at 200 ppm [4] | inhibition of growth at 200 ppm [5] | pest or weed control at 200 ppm [6]

COc1ccnc(C(=O)N[C@@H](C)C(=O)O[C@@H](C)c2ccc(-c3ccccc3C(C)C)cc2)c1O [I.j.001, [(1S)-1-[4-(2-isopropylphenyl)phenyl]ethyl] (2S)-2-[(3-hydroxy-4-methoxy-pyridine-2-carbonyl)amino] propanoate]
≥ 80%: inhibition of growth at 200 ppm [2] | inhibition of growth at 200 ppm [3] | inhibition of growth at 200 ppm [4] | inhibition of growth at 200 ppm [5] | pest or weed control at 200 ppm [6]

COc1ccnc(C(=O)N[C@@H](C)C(=O)O[C@@H](C)c2ccc(-c3cc(C)ccc3C)cc2)c1O [I.p.001, [(1S)-1-[4-(2,5-dimethylphenyl)phenyl]ethyl] (2S)-2-[(3-hydroxy-4-methoxy-pyridine-2-carbonyl)amino] propanoate]
≥ 80%: inhibition of growth at 200 ppm [1] | inhibition of growth at 200 ppm [2] | inhibition of growth at 200 ppm [4] | inhibition of growth at 200 ppm [5] | pest or weed control at 200 ppm [6]

COc1ccnc(C(=O)N[C@@H](C)C(=O)O[C@@H](C)c2ccc(-c3ccc(Cl)c(C)c3)cc2)c1O [I.y.001, [(1S)-1-[4-(4-chloro-3-methyl-phenyl)phenyl]ethyl] (2S)-2-[(3-hydroxy-4-methoxy-pyridine-2-carbonyl)amino] propanoate]
≥ 80%: inhibition of growth at 200 ppm [2] | inhibition of growth at 200 ppm [4] | inhibition of growth at 200 ppm [5] | pest or weed control at 200 ppm [6]

COc1ccnc(C(=O)N[C@@H](C)C(=O)O[C@@H](C)c2ccc(-c3cccc4ccccc34)cc2)c1O [I.z.001, [(1S)-1-[4-(1-naphthyl)phenyl]ethyl] (2S)-2-[(3-hydroxy-4-methoxy-pyridine-2-carbonyl)amino] propanoate]
≥ 80%: inhibition of growth at 200 ppm [1] | inhibition of growth at 200 ppm [2] | inhibition of growth at 200 ppm [4] | inhibition of growth at 200 ppm [5] | pest or weed control at 200 ppm [6]
